The source of these data is patent US20240294478A1, “ANTI-CANCER COMPOUNDS AND METHODS OF USE” (YALE UNIVERSITY, priority 2021, published 2024).

The subject of experiment [1] is LN229 MGMT− shMSH6 cells. The experiment in a line: Short-term viability assay, LN229 MGMT- shMSH6. The note with it: for IC50: Homo sapiens, LN-229, Table III, read-out: IC50 against LN229 cell lines, MGMT− MMR−; for MGMT− RI: Table III. The class given is cell-based, human. As for the experimental part:
(§1) The activity of KL-50 in MGMT-LN229 cells engineered to lack expression of other key MMR proteins including MSH6, MLH1, PMS2, and MSH3 was also confirmed. Western blotting was performed in LN229 MGMT+/−cells with stable expression of shRNA targeting MSH6, MLH1, PMS2, or MSH3 to confirm depletion of the shRNA targets. In shMSH6 cells, there was reduced expression of MSH2, and in shMLH1 cells, there was loss of PMS2, due to destabilization in the setting of loss of their heterodimeric partners. GAPDH serves as loading control. […] Short-term viability assay curves for KL-50 in LN229 MGMT+/−, MMR+/shMSH6 cells. […] Short-term viability assay curves for KL-50 in LN229 MGMT+/−, MMR+/shMLH1 cells. […] Short-term viability assay curves for KL-50 in LN229 MGMT+/−, MMR+/shPMS2 cells. […] Short-term viability assay curves for KL-50 in LN229 MGMT+/−, MMR+/shMSH3 cells.
MMR Protein shRNA Knockdown. pGIPZ lentiviral shRNA vectors targeting MSH2, MSH6, MLH1, PMS2, and MSH3 were purchased from Horizon Discovery (Table IV). Lentiviral particles were produced in HEK293T cells via co-transfection with lentiviral shRNA plasmid, pCMV-VSV-G envelope plasmid (Addgene, #8454) and psPAX2 packaging plasmid (Addgene, #12260), using Lipofectamine 3000 Reagent (Invitrogen, L3000001) per manufacturer's protocol. Viral particles were harvested 48 h post-transfection and used to transduce LN229 MGMT+/−cells in the presence of 8 μg/mL polybrene. Selection of pooled cells with lentiviral expression was established with 1 μg/mL puromycin 48 h post-transduction for 3 to 4 days. Single cell cloning was performed by limiting dilution and protein knockdown was confirmed by western blotting.
Short-term Cell Viability Assay. Cells were seeded in 96-well plates at 1000 or 2000 cells/well and allowed to adhere at 23° C. for 60 min and then incubated overnight at 37° C. Cells were treated with indicated concentrations of compounds in triplicate for 4-6 days prior to fixation with 3.7% paraformaldehyde and nuclear staining with 1 μg/mL Hoechst 33342 dye. Cells were imaged on a Cytation 3 imaging reader (BioTek) and quantified using CellProfiler software. For in vitro short-term growth delay experiments, IC50 values were determined from the nonlinear regression equation, [inhibitor] vs normalized response with variable slope.

The subject of experiment [2] is LN229 MGMT+ shMLH1 cells. The experiment in a line: Short-term viability assay, LN229 MGMT+ shMLH1. The class given is cell-based. The note with it: Homo sapiens, LN-229, Table III, read-out: IC50 against LN229 cell lines, MGMT MMR−. As for the experimental part: as §1
MMR Protein shRNA Knockdown. pGIPZ lentiviral shRNA vectors targeting MSH2, MSH6, MLH1, PMS2, and MSH3 were purchased from Horizon Discovery (Table IV). […]
Short-term Cell Viability Assay. […] Cells were imaged on a Cytation 3 imaging reader (BioTek) and quantified using CellProfiler software. For in vitro short-term growth delay experiments, IC50 values were determined from the nonlinear regression equation, [inhibitor] vs normalized response with variable slope.

The subject of experiment [3] is LN229 MGMT−/MMR+ flank tumors. The experiment in a line: Murine flank tumor model, LN229 MGMT-/MMR+. The class given is in vivo, mouse. To be noted: 5 mg/kg MWF x 3 weeks, P.O. An excerpt: FIGS. 9A-91: KL-50 is safe and efficacious on both MGMT−/MMR+ and MGMT−/MMR-flank tumors over a wide range of treatment regimens and conditions. […] (FIG. 9C) Mean body weight of mice during LN229 flank tumor experiments. (FIG. 9D) Kaplan-Meier analysis of LN229 MGMT−/MMR− xenograft flank tumor-bearing mice to determine survival rate based on death, removal from study if mouse body weight loss exceeded 20% of initial body weight, or if tumor volume exceeded 2000 mm^3. […] (FIGS. 9H-91) Xenograft LN229 MGMT−/MMR+ and LN229 MGMT−/MSH6—flank tumors with a larger average starting tumor size of −400 mm^3 and −350 mm^3 respectively, treated with 3 weekly cycles of P.O administration of 10% cyclodextrin (n=4) or KL-50 (n=4, 3 cycles of 25 mg/kg on Monday, Wednesday, and Friday). The study period was limited by control groups which had to be euthanized for exceeding the ethical maximum allowed tumor size, thus ending the study. In all panels, points, mean; error bars, SEM; *, P<0.05; **, P<0.01; ***, P<0.001; ****, P<0.0001; ns, not significant.
Mouse Protocols for Flank Studies. A mouse tumor model was established by subcutaneously implanting human LN229 (MGMT−/MMR+) or LN229 (MGMT−/MMR−) cells. […] During the final centrifugation, viability was determined using trypan blue exclusion. […]

On to `Cn1nnc2c(C(N)=O)ncn2c1=O` [TMZ, 4-methyl-5-oxo-2,3,4,6,8-pentazabicyclo[4.3.0]nona-2,7,9-triene-9-carboxamide, reference compound], for which the values for the IC50 in experiment [1] and in experiment [2] were 950 ± 68 µM and 769 ± 100 µM, respectively. For the same compound, the “MGMT− RI” value in experiment [1] is reported as 186. Moreover, the “tumor growth, MGMT−/MMR+ flank tumors” value in experiment [3] is on record as “suppressed tumor growth”.

On to `NC(=O)c1ncn2c(=O)n(CCF)nnc12` [KL-50], for which the IC50 (usually the midpoint of a concentration-inhibition curve) in experiment [1] is 6.6 ± 0.4 µM; in experiment [2], 252 ± 28 µM. Further, the “MGMT− RI” value in experiment [1] was 0.5. In experiment [3], the “tumor growth, MGMT−/MMR+ flank tumors” value is “statistically non-inferior to TMZ”.
